# According to patent publication US20240270741A1 (Cogent Biosciences, Inc., priority 2023, published 2024):
# Target: FGFR2 (Homo sapiens, UniProt P21802)
# Assay: FGFR wild type enzyme assay (HTRF KinEASE-TK), FGFR2
# Conditions: Enz FGFR2 (nM), FGFR2 wild type enzyme assay
# Chain of FGFR2 (P21802 399-821 limits assumed): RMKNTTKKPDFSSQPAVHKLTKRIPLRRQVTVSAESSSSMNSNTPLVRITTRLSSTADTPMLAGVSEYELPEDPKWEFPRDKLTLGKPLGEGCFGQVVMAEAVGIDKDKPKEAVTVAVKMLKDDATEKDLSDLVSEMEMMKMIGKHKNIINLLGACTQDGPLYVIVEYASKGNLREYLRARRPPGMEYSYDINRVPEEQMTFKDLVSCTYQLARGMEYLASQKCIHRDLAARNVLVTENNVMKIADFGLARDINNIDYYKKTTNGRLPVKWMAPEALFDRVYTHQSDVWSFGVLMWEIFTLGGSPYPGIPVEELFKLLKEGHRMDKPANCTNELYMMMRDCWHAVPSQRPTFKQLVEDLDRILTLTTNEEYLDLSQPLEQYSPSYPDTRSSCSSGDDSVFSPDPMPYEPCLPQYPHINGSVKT
row,SMILES,IC50
1,"Cc1c(-c2cc(Sc3ccc(F)cc3C#N)c3c(C#N)cnn3c2)cnn1[C@H]1CC[C@H](OC(=O)[C@H](C)N)CC1 [Example 634, (1r,4S)-4-(4-(3-cyano-4-((2-cyano-4 fluorophenyl)thio)pyrazolo [1,5-a]pyridin-6-yl)-5-methyl-1H-pyrazol-1-yl)cyclohexyl L-alaninate]",1 nM
2,"Cc1c(-c2cc(Sc3ccc(F)cc3C#N)c3c(C#N)cnn3c2)cnn1[C@H]1CC[C@H](OC(=O)[C@H](N)C(C)C)CC1 [Example 635, (1r,4R)-4-(4-(3-cyano-4-((2-cyano-4-fluorophenyl)thio)pyrazolo [1,5-a]pyridin-6-yl)-5-methyl-1H-pyrazol-1-yl)cyclohexyl D-valinate]",1 nM
3,"Cc1c(-c2cc(Sc3ccc(F)cc3C#N)c3c(C#N)cnn3c2)cnn1[C@H]1CC[C@H](OC(=O)CN)CC1 [Example 636, (1r,4r)-4-(4-(3-cyano-4-((2-cyano-4-fluorophenyl)thio)pyrazolo [1,5-a]pyridin-6-yl)-5-methyl-1H-pyrazol-1-yl)cyclohexyl glycinate]",1 nM
4,"N#Cc1ccccc1Sc1cc(-c2c[nH]nn2)cn2ncc(C#N)c12 [Example 637, 4-((2-cyanophenyl)thio)-6-(1H-1,2,3-triazol-4-yl)pyrazolo[1,5-a]pyridine-3-carbonitrile]",12 nM
5,"Cn1cc(-c2cc(Sc3ccccc3C#N)c3c(C#N)cnn3c2)ccc1=O [Example 638, 4-((2-cyanophenyl)thio)-6-(1-methyl-6-oxo-1,6-dihydropyridin-3-yl)pyrazolo[1,5-a]pyridine-3-carbonitrile]",18 nM
6,"CN(CCO)c1ccc(-c2cc(Sc3ccc(F)cc3C#N)c3c(C#N)cnn3c2)cn1 [Example 639, 4-((2-cyano-4-fluorophenyl)thio)-6-(6-((2-hydroxyethyl)(methyl)ami-no)pyridin-3-yl)pyrazolo[1,5-a]pyridine-3-carbonitrile]",1.5 nM
7,"N#Cc1cc(F)ccc1Sc1cc(-c2ccc(NCCO)nc2)cn2ncc(C#N)c12 [Example 640, 4-((2-cyano-4-fluorophenyl)thio)-6-(6-((2-hydroxyethyl)amino)pyridin-3-yl)pyrazolo[1,5-a]pyridine-3-carbonitrile]",2.5 nM
8,"[2H]C([2H])([2H])n1cc(-c2cc(Sc3ccccc3C#N)c3c(C#N)cnn3c2)cn1 [Example 641, 4-((2-cyanophenyl)thio)-6-(1-(methyl-d3)-1H-pyrazol-4-yl)pyrazolo[1,5-a]pyridine-3-carbonitrile]",1 nM
9,"Cn1cc(-c2cc(Sc3ccccc3C#N)c3c(C#N)cnn3c2)c(N)n1 [Example 642, 6-(3-amino-1-methyl-1H-pyrazol-4-yl)-4-((2-cyanophenyl)thio)pyrazolo [1,5-a]pyridine-3-carbonitrile]",2 nM
10,Cc1c(-c2cc(Sc3ccccc3C#N)c3c(C#N)cnn3c2)cnn1[C@@H]1CCNC(=O)C1 [Example 643],3 nM
11,Cc1c(-c2cc(Sc3ccccc3C#N)c3c(C#N)cnn3c2)cnn1[C@H]1CCNC(=O)C1 [Example 644],1.6 nM
12,CC(=O)NC1CCN(c2ccc(-c3cc(Sc4ccc(F)cc4C#N)c4c(C#N)cnn4c3)cn2)C1 (stereo not shown) [Example 645],1.6 nM
13,"N#Cc1cc(F)ccc1Sc1cc(-c2ccc(N3CCOC(CO)C3)nc2)cn2ncc(C#N)c12 (stereo not shown) [Example 646, 4-((2-cyano-4-fluorophenyl)thio)-6-(6-(2-(hydroxymethyl)morpholi-no)pyridin-3-yl)pyrazolo[1,5-a]pyridine-3-carbonitrile]",1 nM
14,"CN1C[C@@H](n2cc(-c3cc(Sc4ccccc4C#N)c4c(C#N)cnn4c3)cn2)CCC1=O [Example 647, (S)-4-((2-cyanophenyl)thio)-6-(1-(1-methyl-6-oxopiperidin-3-yl)-1H-pyrazol-4-yl)pyrazolo[1,5-a]pyridine-3-carbonitrile]",1 nM
15,"N#Cc1ccccc1Sc1cc(-c2ccc(N3CCO[C@@H](CO)C3)nc2)cn2ncc(C#N)c12 [Example 648, (R)-4-((2-cyanophenyl)thio)-6-(6-(2-(hydroxymethyl)morpholi-no)pyridin-3-yl)pyrazolo[1,5-a]pyridine-3-carbonitrile]",0.6 nM
16,"N#Cc1ccccc1Sc1cc(-c2ccc(N3CCO[C@H](CO)C3)nc2)cn2ncc(C#N)c12 [Example 649, (S)-4-((2-cyanophenyl)thio)-6-(6-(2-(hydroxymethyl)morpholi-no)pyridin-3-yl)pyrazolo[1,5-a]pryidine-3-carbonitrile]",0.5 nM
17,"N#Cc1ccccc1Sc1cc(-c2cnn(CC[C@@H](O)CO)c2)cn2ncc(C#N)c12 [Example 650, (R)-4-((2-cyanophenyl)thio)-6-(1-(3,4-dihydroxybutyl)-1H-pyrazol-4-yl)pyrazolo[1,5-a]pyridine-3-carbonitrile]",1 nM

row,SMILES,IC50
1,"N#Cc1ccccc1Sc1cc(-c2cnn(CC(=O)N3CC[C@H](O)C3)c2)cn2ncc(C#N)c12 [Example 651, (S)-4-((2-cyanophenyl)thio)-6-(1-(2-(3-hydroxypyrrolidin-1-yl)-2-oxoethyl)-1H-pyrazol-4-yl)pyrazolo[1,5-a]pyridine-3-carbonitrile]",1 nM
2,"N#Cc1ccccc1Sc1cc(-c2cnn(CC(=O)N3CC[C@@H](O)C3)c2)cn2ncc(C#N)c12 [Example 652, (R)-4-((2-cyanophenyl)thio)-6-(1-(2-(3-hydroxypyrrolidin-1-yl)-2-oxoethyl)-1H-pyrazol-4-yl)pyrazolo[1,5-a]pyridine-3-carbonitrile]",1 nM
3,"CC(C)(O)CCn1cc(-c2cc(Sc3ccccc3C#N)c3c(C#N)cnn3c2)cn1 [Example 653, 4-((2-cyanophenyl)thio)-6-(1-(3-hydroxy-3-methylbutyl)-1H-pyrazol-4-yl)pyrazolo[1,5-a]pyridine-3-carbonitrile]",1 nM
4,"N#Cc1cnn2cc(-c3ccc(N4C[C@H](O)[C@@H](O)C4)nc3)cc(Sc3ncccc3F)c12 [Example 654, 6-(6-((3S,4S)-3,4-dihydroxypyrrolidin-1-yl)pyridin-3-yl)-4-((3-fluoropyridin-2-yl)thio)pyrazolo[1,5-a]pyridine-3-carbonitrile]",3 nM
5,"N#Cc1cnn2cc(-c3ccc(N4C[C@@H](O)[C@H](O)C4)nc3)cc(Sc3ncccc3F)c12 [Example 655, 6-(6-((3R,4R)-3,4-dihydroxypyrrolidin-1-yl)pyridin-3-yl)-4-((3-fluoropyridin-2-yl)thio)pyrazolo[1,5-a]pyridine-3-carbonitrile]",3 nM
6,"CN1CCN(c2ccc(-c3cc(Sc4ncccc4F)c4c(C#N)cnn4c3)cn2)CC1=O [Example 656, 4-((3-fluoropyridin-2-yl)thio)-6-(6-(4-methyl-3-oxopiperazin-1-yl)pyridin-3-yl)pyrazolo[1,5-a]pyridine-3-carbonitrile]",2 nM
7,"N#Cc1cc(F)ccc1Sc1cc(-c2ccc(N3CCNC(=O)C3)nc2)cn2ncc(C#N)c12 [Example 657, 4-((2-cyano-4-fluorophenyl)thio)-6-(6-(3-oxopiperazin-1-yl)pyridin-3-yl)pyrazolo[1,5-a]pyridine-3-carbonitrile]",3 nM
8,"CN=S1(=O)CCC(n2cc(-c3cc(Sc4ccc(F)cc4C#N)c4c(C#N)cnn4c3)cn2)CC1 (stereo not shown) [Example 658, 4-((2-cyano-4-fluorophenyl)thio)-6-(1-(1-(methylimino)-1-oxidohexahydro-1l6-thiopyran-4-yl)-1H-pyrazol-4-yl)pyrazolo[1,5-a]pyridine-3-carbonitrile]",1.5 nM
9,"CC(=O)N1CCC(N(C)c2ccc(-c3cc(Sc4ccccc4C#N)c4c(C#N)cnn4c3)cn2)CC1 [Example 659, 6-(6-((1-acetylpiperidin-4-yl)(methyl)amino)pyridin-3-yl)-4-((2-cyanophenyl)thio)pyrazolo [1,5-a]pyridine-3-carbonitrile]",0.3 nM
10,"N#Cc1ccccc1Sc1cc(-c2ccc(N3C[C@@H](O)[C@@H](O)C3)nc2)cn2ncc(C#N)c12 [Example 660, 4-((2-cyanophenyl)thio)-6-(6-((3R,4S)-3,4-dihydroxypyrrolidin-1-yl)pyridin-3-yl)pyrazolo[1,5-a]pyridine-3-carbonitrile]",1 nM
11,"N#Cc1cnn2cc(-c3ccc(N4C[C@@H](O)[C@@H](O)C4)nc3)cc(Sc3ncccc3F)c12 [Example 661, 6-(6-((3R,4S)-3,4-dihydroxypyrrolidin-1-yl)pyridin-3-yl)-4-((3-fluoropyridin-2-yl)thio)pyrazolo[1,5-a]pyridine-3-carbonitrile]",2 nM
12,"N#Cc1cnn2cc(-c3ccc(N4CCNC(=O)C4)nc3)cc(Sc3ncccc3F)c12 [Example 662, 4-((3-fluoropyridin-2-yl)thio)-6-(6-(3-oxopiperazin-1-yl)pyridin-3-yl)pyrazolo[1,5-a]pyridine-3-carbonitrile]",2 nM
13,"CC(=O)NCCn1cc(-c2cc(Sc3ccccc3C#N)c3c(C#N)cnn3c2)cn1 [Example 663, N-(2-(4-(3-cyano-4-((2-cyanophenyl)thio)pyrazolo [1,5-a]pyridin-6-yl)-1H-pyrazol-1-yl)ethyl)acetamide]",2 nM
14,"CC(=O)N1CCN(c2ccc(-c3cc(Sc4ccccc4C#N)c4c(C#N)cnn4c3)cn2)CC1 [Example 664, 6-(6-(4-acetylpiperazin-1-yl)pyridin-3-yl)-4-((2-cyanophenyl)thio)pyrazolo [1,5-a]pyridine-3-carbonitrile]",0.2 nM
15,"C[C@@H]1CN(c2ccc(-c3cc(Sc4ccccc4C#N)c4c(C#N)cnn4c3)cn2)C[C@H](C)O1 [Example 665, 4-((2-cyanophenyl)thio)-6-(6-((2S,6R)-2,6-dimethylmorpholino)pyridin-3-yl)pyrazolo[1,5-a]pyridine-3-carbonitrile]",1 nM
16,"Cc1c(-c2cc(Sc3ccc(F)cc3C#N)c3c(C#N)cnn3c2)cnn1C1CCOCC1 [Example 666, 4-((2-cyano-4-fluorophenyl)thio)-6-(5-methyl-1-(tetrahydro-2H-pyran-4-yl)-1H-pyrazol-4-y)pyrazolo[1,5-a]pyridine-3-carbonitrile]",0.6 nM
17,"CN1C[C@H](n2cc(-c3cc(Sc4ccccc4C#N)c4c(C#N)cnn4c3)cn2)CCC1=O [Example 667, (R)-4-((2-cyanophenyl)thio)-6-(1-(1-methyl-6-oxopiperidin-3-yl)-1H-pyrazol-4-yl)pyrazolo[1,5-a]pyridine-3-carbonitrile]",1 nM
